Literature values, collected in patent publication US20130281387A1, “Chemosensory Receptor Ligand-Based Therapies” (ELCELYX THERAPEUTICS, INC., priority 2010, published 2013).

Tests used:
bitter receptor = conditions: bitter phytonutrients in common plant foods
gut hormones = conditions: humans, after administration
GLP-1 = conditions: humans, after administration

Structure (SMILES) | Taste quality (bitter receptor) | other results
S=C=NCc1ccccc1 [Benzyl isothiocyanate] | Acrid mustard oils; | 
O=C(O[C@@H]1Cc2c(O)cc(O)cc2O[C@@H]1c1ccc(O)c(O)c1)c1cc(O)c(O)c(O)c1 [Epicatechin gallate] | Bitter and astringent | 
CC(=O)O[C@H]1CC(=O)OC(C)(C)[C@@H]2CC(=O)[C@]3(C)[C@H](CC[C@@]4(C)[C@H](c5ccoc5)OC(=O)[C@H]5O[C@]543)[C@@]12C [Nomilin] | Bitter | 
C[S+]([O-])CCCCN=C=S (stereo not shown) [4-Methylsulfinyl butyl isothiocyanate] | Acrid mustard oils | 
O=c1c(-c2ccc(O)cc2)coc2cc(O[C@@H]3O[C@H](CO)[C@@H](O)[C@H](O)[C@H]3O)cc(O)c12 [Genistin] | Astringent | 
Oc1cc(O)c2c(c1)O[C@H](c1cc(O)c(O)c(O)c1)[C@H](O)C2 [Epigallocatechin] | Bitter with sweet | 
O=c1c(-c2ccc(O)cc2)coc2cc(O)cc(O)c12 [Genistein] | Bitter or astringent | 
C=CCN=C=S [Allyl-isothiocyanate] | Acrid mustard oils; | 
O=c1c(-c2ccc(O)cc2)coc2cc(O[C@@H]3O[C@H](CO)[C@@H](O)[C@H](O)[C@H]3O)ccc12 [Daidzin] | Astringent | 
C=C1C[C@@]23CC[C@H]4[C@@](C)(CCC[C@@]4(C)C(=O)O[C@@H]4O[C@H](CO)[C@@H](O)[C@H](O)[C@H]4O)[C@@H]2CC[C@]1(O[C@@H]1O[C@H](CO)[C@@H](O)[C@H](O[C@@H]2O[C@H](CO)[C@@H](O)[C@H](O)[C@H]2O)[C@H]1O[C@@H]1O[C@H](CO)[C@@H](O)[C@H](O)[C@H]1O)C3 [Rebaudioside A] |  | gut hormones in the circulation (gut hormones): no alterations
O=C(O[C@@H]1Cc2c(O)cc(O)cc2O[C@@H]1c1cc(O)c(O)c(O)c1)c1cc(O)c(O)c(O)c1 [Epigallocatechin gallate] | Bitter with sweet | 
C[S+]([O-])CCCN=C=S (stereo not shown) [3-Methyl-sulfinylpropyl isothiocyanate] | Acrid mustard oils | 
OCCN1C[C@H](O)[C@@H](O)[C@H](O)[C@H]1CO [miglitol] |  | post-prandial GLP-1 levels (GLP-1): increase
C=CCC(=NOS(=O)(=O)O)S[C@@H]1O[C@H](CO)[C@@H](O)[C@H](O)[C@H]1O (stereo in doubt) [Sinigrin] | Bitter | 

Second part, led by results:

Taste quality (bitter receptor) | Structure (SMILES) | other results
Bitter | C[C@@H]1O[C@@H](O[C@H]2[C@H](Oc3cc(O)c4c(c3)O[C@H](c3ccc(O)cc3)CC4=O)O[C@H](CO)[C@@H](O)[C@@H]2O)[C@H](O)[C@H](O)[C@H]1O [Naringin] | 
Bitter | COc1ccc(-c2cc(=O)c3c(OC)c(OC)c(OC)c(OC)c3o2)cc1OC [Nobiletin] | 
Bitter | COc1ccc(-c2cc(=O)c3c(OC)c(OC)c(OC)cc3o2)cc1OC [Sinensetin] | 
Bitter | CC1(C)O[C@H]2CC(=O)OC[C@]23[C@H]2CC[C@@]4(C)[C@H](c5ccoc5)OC(=O)[C@H]5O[C@]54[C@]2(C)C(=O)C[C@@H]13 [Limonin] | 
Bitter | C=CC1CNC(=S)O1 (stereo not shown) [Goitrin, Goitrin 5-vinyl-2-oxazolidine thione] | 
Bitter | C=C[C@H](O)CC(=NOS(=O)(=O)O)S[C@@H]1O[C@H](CO)[C@@H](O)[C@H](O)[C@H]1O [Progoitrin] | 
Bitter | COc1ccc(-c2cc(=O)c3c(OC)c(OC)c(OC)c(OC)c3o2)cc1 [Tangeretin] | 
Bitter | O=S(=O)(O)ON=C(Cc1c[nH]c2ccccc12)S[C@@H]1O[C@H](CO)[C@@H](O)[C@H](O)[C@H]1O [Glucobrassicin] | 
Bitter or astringent | O=c1c(-c2ccc(O)cc2)coc2cc(O)ccc12 [daidzein] | 
Tasteless | CC1(C)O[C@H]2CC(=O)OC[C@]23[C@H]2CC[C@@](C)([C@@H](O[C@@H]4O[C@H](CO)[C@@H](O)[C@H](O)[C@H]4O)c4ccoc4)[C@@]4(O[C@@H]4C(=O)O)[C@]2(C)C(=O)C[C@@H]13 [Limonin glucoside] | 
Bitter | O=c1c(O)c(-c2ccc(O)c(O)c2)oc2cc(O)cc(O)c12 [Quercetin] | 
